This note sets out measurements from patent US8937068B2, “Pyridopyrazine derivatives and their use” (Zentaris GmbH, priority 2005, dated 2015).

Structures are written as SMILES.

The target in one series is Erk2 (Homo sapiens, UniProt P28482). As to the kind of experiment: Cell-free kinase assay (ALPHA technology), Erk2. Type of series: biochemical. The conditions noted are these: 10 μM ATP. The method, then:
The inhibitory effect of the compounds according to the invention was tested on various serine/threonine, tyrosine and lipid kinases in enzymatic assays. […] The commercial kinase proteins (Proqinase, Upstate) were used as recombinant fusion proteins with GST (glutathion-S-transferase) or His-Tag. Depending on the type of substrate, the various kinase reactions were quantified by means of suitable ALPHA™ beads (Perkin-Elmer). The substance testing is described in detail hereinafter for the Erk assay. […] a) MAPK-ALPHAs (e.g. […] The kinase reaction was then stopped by adding ALPHA bead mixes (10 μg/ml, #6760603/Perkin-Elmer) pre-incubated with 1 nM GST:Grp1 fusion protein (Upstate) and 15 nM biotinylated PIP3 (#C-39B6/Echelon) in 50 mM Hepes, 50 mM NaCl, 50 mM EDTA and 0.1% BSA and left to stand overnight. The fluorescence was detected the following morning in a Fusion™^aα-system (Perkin-Elmer). […] Eight determinations were made for each control and two for the substance samples. […] The IC50 values were determined using GraphPadPrism.

A further series addresses PI3Kalpha (Homo sapiens (Human), UniProt P42336). Description: Cell-free kinase assay (ALPHA technology), PI3Kalpha. The conditions noted are these: 100 μM ATP. It is filed as biochemical. The method, then:
(§1) The inhibitory effect of the compounds according to the invention was tested on various serine/threonine, tyrosine and lipid kinases in enzymatic assays. Recombinant human kinases such as, for example, Erk2, PI3Kalpha, -beta, -gamma, -delta, p38alpha, p38gamma, Jnk1, Jnk2 and others were used in this case, partly as full-length kinases, partly as shortened fragments, but at least consisting of the functional kinase domains. The commercial kinase proteins (Proqinase, Upstate) were used as recombinant fusion proteins with GST (glutathion-S-transferase) or His-Tag. Depending on the type of substrate, the various kinase reactions were quantified by means of suitable ALPHA™ beads (Perkin-Elmer).
(§2) The substance testing is described in detail hereinafter for the Erk assay.
(§3) a) MAPK-ALPHAs (e.g. Erk2): the test substance, 0.625 ng Erk2 (#14-173, Upstate), 10 μM ATP and 15 nM biotinylated MBP (myelin basic protein) substrate were incubated on a 384-well Optiplate (Perkin-Elmer) in a volume of 15 μl for 1 h in 25 mM Tris, 10 mM MgCl2, 0.1% Tween-20, 100 μM NaVO4, 2 mM DTT at pH 7.5. The kinase reaction was then stopped by adding 10 μl of the ALPHA bead mixes (10 μg/ml, #6760617/Perkin-Elmer) pre-incubated with anti-phospho MBP antibody (320 pM, #05-429/Upstate) in 25 mM Tris, 200 mM NaCl, 110 nM EDTA and 0.3% BSA and left to stand overnight. b) PI3K-ALPHAs (e.g. PI3Kalpha): the test substance, 1 ng PI3Kalpha (#14-602, Upstate), 100 μM ATP and 20 μM PIP2 substrate (#P4508, Echelon) were incubated on a 384-well Optiplate (Perkin-Elmer) for 1 h in 50 mM Hepes, 50 mM NaCl, 5 mM MgCl2, 0.05% Chaps, 5 mM DTT at pH 7.4. The kinase reaction was then stopped by adding ALPHA bead mixes (10 μg/ml, #6760603/Perkin-Elmer) pre-incubated with 1 nM GST:Grp1 fusion protein (Upstate) and 15 nM biotinylated PIP3 (#C-39B6/Echelon) in 50 mM Hepes, 50 mM NaCl, 50 mM EDTA and 0.1% BSA and left to stand overnight.
(§4) The fluorescence was detected the following morning in a Fusion™^aα-system (Perkin-Elmer).
(§5) The %-inhibition values per substance concentration were calculated by means of the following formula from the raw data determined in the Fusion™ ? :
(§6) Eight determinations were made for each control and two for the substance samples. The 0% control either contains no ATP or no substrate, the 100% control (fully active kinase) contains no test substance. The IC50 values were determined using GraphPadPrism.

A further series deals with Jnk1 + Jnk2. Description: Cell-free kinase assay (ALPHA technology), Jnk1 + Jnk2. It is filed as biochemical, human. The conditions noted are these: 10 μM ATP. As to the method:
as §1, §2, §3, §4, §5, §6

The target in a further series is p38alpha (Homo sapiens (Human), UniProt Q16539). Description: Cell-free kinase assay (ALPHA technology), p38alpha. Type of series: biochemical. The conditions noted are these: 10 μM ATP. The method, then: as §1, §2, §3, §4, §5, §6
p38alpha, sequence (Q16539 whole entry): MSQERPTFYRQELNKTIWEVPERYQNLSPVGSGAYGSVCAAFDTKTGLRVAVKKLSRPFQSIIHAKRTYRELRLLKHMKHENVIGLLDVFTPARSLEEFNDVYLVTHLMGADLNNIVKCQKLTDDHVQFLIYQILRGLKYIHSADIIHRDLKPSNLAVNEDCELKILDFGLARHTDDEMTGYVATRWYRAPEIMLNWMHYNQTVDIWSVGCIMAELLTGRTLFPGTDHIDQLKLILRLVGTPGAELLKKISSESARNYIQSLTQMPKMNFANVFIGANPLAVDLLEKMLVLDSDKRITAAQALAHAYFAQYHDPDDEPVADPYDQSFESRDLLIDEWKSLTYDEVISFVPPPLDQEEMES

PI3Kalpha, sequence (P42336 whole entry, the tested form may be a part): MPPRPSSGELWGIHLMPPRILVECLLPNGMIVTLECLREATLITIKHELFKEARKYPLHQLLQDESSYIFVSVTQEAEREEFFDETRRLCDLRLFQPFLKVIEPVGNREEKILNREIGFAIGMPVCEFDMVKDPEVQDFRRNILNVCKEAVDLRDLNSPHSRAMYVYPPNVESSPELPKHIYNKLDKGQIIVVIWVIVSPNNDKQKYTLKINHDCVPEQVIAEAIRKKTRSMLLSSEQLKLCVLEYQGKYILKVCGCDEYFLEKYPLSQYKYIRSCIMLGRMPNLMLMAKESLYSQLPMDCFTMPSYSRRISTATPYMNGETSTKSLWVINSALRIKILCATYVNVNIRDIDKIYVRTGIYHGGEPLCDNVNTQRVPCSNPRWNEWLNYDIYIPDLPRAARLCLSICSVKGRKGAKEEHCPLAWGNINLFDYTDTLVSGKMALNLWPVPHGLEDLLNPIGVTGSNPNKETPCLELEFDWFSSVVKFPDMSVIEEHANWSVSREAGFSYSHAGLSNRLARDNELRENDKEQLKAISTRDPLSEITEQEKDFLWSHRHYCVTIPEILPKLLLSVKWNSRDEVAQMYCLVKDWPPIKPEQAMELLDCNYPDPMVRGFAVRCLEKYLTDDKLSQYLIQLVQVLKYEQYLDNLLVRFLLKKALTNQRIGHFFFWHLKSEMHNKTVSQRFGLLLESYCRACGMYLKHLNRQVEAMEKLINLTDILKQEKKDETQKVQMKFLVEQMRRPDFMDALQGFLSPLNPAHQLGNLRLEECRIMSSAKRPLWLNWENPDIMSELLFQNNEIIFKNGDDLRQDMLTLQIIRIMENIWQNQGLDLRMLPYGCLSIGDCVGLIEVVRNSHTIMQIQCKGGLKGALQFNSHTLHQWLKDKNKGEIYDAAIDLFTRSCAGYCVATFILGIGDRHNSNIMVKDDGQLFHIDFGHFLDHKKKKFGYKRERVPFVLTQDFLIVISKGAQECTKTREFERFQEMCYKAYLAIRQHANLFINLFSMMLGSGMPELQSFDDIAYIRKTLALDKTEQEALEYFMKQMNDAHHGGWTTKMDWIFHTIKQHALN
PI3Kalpha, sequence (P27986 whole entry partner, the tested form may be a part): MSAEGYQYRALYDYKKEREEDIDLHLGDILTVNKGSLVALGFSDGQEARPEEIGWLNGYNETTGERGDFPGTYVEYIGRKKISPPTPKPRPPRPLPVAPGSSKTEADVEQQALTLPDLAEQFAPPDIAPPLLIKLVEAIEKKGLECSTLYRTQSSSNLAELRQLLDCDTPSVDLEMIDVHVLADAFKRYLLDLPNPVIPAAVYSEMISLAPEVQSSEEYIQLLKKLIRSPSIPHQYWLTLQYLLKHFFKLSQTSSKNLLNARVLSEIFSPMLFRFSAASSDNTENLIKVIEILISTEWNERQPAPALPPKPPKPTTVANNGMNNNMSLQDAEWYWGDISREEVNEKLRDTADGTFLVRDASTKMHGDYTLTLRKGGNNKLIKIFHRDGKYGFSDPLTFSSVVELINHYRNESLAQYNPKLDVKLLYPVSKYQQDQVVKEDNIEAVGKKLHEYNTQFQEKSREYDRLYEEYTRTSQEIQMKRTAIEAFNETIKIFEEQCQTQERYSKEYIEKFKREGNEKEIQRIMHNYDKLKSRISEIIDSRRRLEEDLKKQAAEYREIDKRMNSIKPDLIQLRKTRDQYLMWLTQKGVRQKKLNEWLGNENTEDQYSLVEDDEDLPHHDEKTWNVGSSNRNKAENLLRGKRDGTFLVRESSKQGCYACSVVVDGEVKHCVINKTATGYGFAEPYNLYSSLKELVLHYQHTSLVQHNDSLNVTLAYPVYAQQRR
Erk2, sequence (P28482 2-360 limits assumed): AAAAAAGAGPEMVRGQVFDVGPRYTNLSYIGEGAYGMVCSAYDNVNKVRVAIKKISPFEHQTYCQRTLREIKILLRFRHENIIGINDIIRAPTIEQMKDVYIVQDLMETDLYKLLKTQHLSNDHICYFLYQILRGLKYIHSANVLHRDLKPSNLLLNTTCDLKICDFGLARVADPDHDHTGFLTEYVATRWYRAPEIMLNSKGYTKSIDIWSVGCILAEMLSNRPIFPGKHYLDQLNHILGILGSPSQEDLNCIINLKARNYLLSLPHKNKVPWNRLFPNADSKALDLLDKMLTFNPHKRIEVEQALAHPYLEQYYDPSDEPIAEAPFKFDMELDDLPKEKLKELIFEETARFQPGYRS

One may read the melting point as the temperature, or range, at which the solid turns liquid. For the compound `C=CCNC(=S)Nc1ccc2ncc(-c3ccc(O)cc3)nc2n1.Cl`, the melting point is 160 to 161 °C (dec.).
Turning to `C=C(C)CNC(=S)Nc1ccc2ncc(-c3ccc(OC)cc3)nc2n1` [Compound 3, 1-[3-(4-methoxy-phenyl)-pyrido[2,3-b]pyrazin-6-yl]-3-(2-methyl-allyl)-thiourea], the melting point is 251 to 252 °C (dec.).
`C=C(C)CNC(=S)Nc1ccc2ncc(-c3ccccc3)nc2n1` [Compound 4, 1-(2-methyl-allyl)-3-(3-phenyl-pyrido[2,3-b]pyrazin-6-yl)-thiourea]: the melting point is 225 to 226 °C (dec.).
For `C=CCNC(=S)Nc1ccc2ncc(-c3ccc4ccccc4c3)nc2n1` [Compound 5, 1-allyl-3-(3-naphth-2-yl-pyrido[2,3-b]pyrazin-6-yl)-thiourea], the melting point is 242 to 243 °C (dec.).
Same read-out and setting: then `C=CCNC(=S)Nc1ccc2ncc(-c3ccc(OC)cc3)nc2n1` [Compound 6, 1-allyl-3-[3-(4-methoxy-phenyl)-pyrido[2,3-b]pyrazin-6-yl]-thiourea], with 240 to 241 °C (dec.); and `O=[N+]([O-])c1ccc(NC(=S)Nc2ccc3ncc(-c4ccc5ccccc5c4)nc3n2)cc1` [Compound 8, 1-(3-naphth-2-yl-pyrido[2,3-b]pyrazin-6-yl)-3-(4-nitro-phenyl)-thiourea], with 260 to 261 °C (dec.).
A word on the IC50: it is the concentration that inhibits the measured activity by half. Turning to `CCNC(=O)Nc1ccc2ncc(-c3ccc(O)cc3Cl)nc2n1` [Compound 170, 1-[3-(2-Chloro-4-hydroxy-phenyl)-pyrido[2,3-b]pyrazin-6-yl]-3-ethyl-urea], the IC50 was 0.103 µM against Erk2, 2.4 µM at PI3Kalpha, 1.1 µM in the series on Jnk1 + Jnk2 and > 31.6 µM on p38alpha.
With `CCNC(=O)Nc1ccc2ncc(-c3ccc(Cl)cc3OC)nc2n1` [Compound 171, 1-[3-(4-Chloro-2-methoxy-phenyl)-pyrido[2,3-b]pyrazin-6-yl]-3-ethyl-urea], the IC50 on Erk2 is 0.084 µM; against PI3Kalpha, 3 µM; in the series with Jnk1 + Jnk2 it was 1.4 µM; at p38alpha, > 100 µM.
On to `CCNC(=O)Nc1ccc2ncc(-c3c(C)n[nH]c3C)nc2n1` [Compound 172, 1-[3-(3,5-Dimethyl-1H-pyrazol-4-yl)-pyrido[2,3-b]pyrazin-6-yl]-3-ethyl-urea], for which the 50% inhibitory concentration (IC50) was 0.41 µM on Erk2, 4 µM at PI3Kalpha, 4 µM in the series with Jnk1 + Jnk2 and > 100 µM at p38alpha.
As to `CCNC(=O)Nc1ccc2ncc(-c3ccc(C#N)s3)nc2n1` [Compound 174, 1-[3-(5-Cyano-thiophen-2-yl)-pyrido[2,3-b]pyrazin-6-yl]-3-ethyl-urea], the IC50 is 4.9 µM on Erk2, 3 µM against PI3Kalpha, 4.6 µM in the series with Jnk1 + Jnk2 and > 31.6 µM on p38alpha.
As to `CCNC(=O)Nc1ccc2ncc(Nc3ccc(OC)c(Cl)c3)nc2n1` [Compound 177, 1-[3-(3-Chloro-4-methoxy-phenylamino)-pyrido[2,3-b]pyrazin-6-yl]-3-ethyl-urea], the IC50 on Erk2 is > 31.6 µM; against PI3Kalpha, 0.295 µM; with Jnk1 + Jnk2, 3.9 µM; on p38alpha it was > 100 µM.
Consider `CCNC(=O)Nc1ccc2ncc(Nc3ccc4ccccc4c3)nc2n1` [Compound 178, 1-Ethyl-3-[3-(naphthalin-2-ylamino)-pyrido[2,3-b]pyrazin-6-yl]-urea], for which the IC50 at Erk2 is > 100 µM; at PI3Kalpha, 0.164 µM; in the series with Jnk1 + Jnk2, 2.3 µM; on p38alpha, > 31.6 µM.
The matching figures for `CCNC(=O)Nc1ccc2ncc(Nc3cnc4ccccc4c3)nc2n1` [Compound 179, 1-Ethyl-3-[3-(chinolin-3-ylamino)-pyrido[2,3-b]pyrazin-6-yl]-urea]: 8 µM, 0.202 µM, 8.1 µM and 1.4 µM.
The matching figures for `CCNC(=O)Nc1ccc2ncc(Nc3cc(OC)cc(OC)c3)nc2n1` [Compound 180, 1-[3-(3,5-Dimethoxy-phenylamino)-pyrido[2,3-b]pyrazin-6-yl]-3-ethyl-urea]: 15.7 µM, 1.1 µM, 8.6 µM and > 100 µM.
Consider `CCNC(=O)Nc1ccc2ncc(Nc3cnccn3)nc2n1` [Compound 181, 1-Ethyl-3-[3-(pyrazin-2-ylamino)-pyrido[2,3-b]pyrazin-6-yl]-urea], for which the IC50 on Erk2 was 1.7 µM; against PI3Kalpha, 0.739 µM; in the series with Jnk1 + Jnk2 it was 4.3 µM; against p38alpha, > 100 µM.
On to `CCNC(=O)Nc1ccc2ncc(Nc3cccc(OC(C)C)c3)nc2n1` [Compound 182, 1-Ethyl-3-[3-(3-isopropoxy-phenylamino)-pyrido[2,3-b]pyrazin-6-yl]-urea], for which the IC50 at Erk2 was > 31.6 µM; against PI3Kalpha it was 1.1 µM; in the series on Jnk1 + Jnk2, 21 µM; on p38alpha, > 100 µM.
The matching figures for `CCNC(=O)Nc1ccc2ncc(Nc3ccnc(Cl)c3)nc2n1` [Compound 184, 1-[3-(2-Chloro-pyridin-4-ylamino)-pyrido[2,3-b]pyrazin-6-yl]-3-ethyl-urea]: > 100 µM, 0.133 µM, 6.3 µM and > 100 µM.
The matching figures for `CCNC(=O)Nc1ccc2ncc(Nc3cc(Cl)c(O)c(Cl)c3)nc2n1` [Compound 185, 1-[3-(3,5-Dichloro-4-hydroxy-phenylamino)-pyrido[2,3-b]pyrazin-6-yl]-3-ethyl-urea]: > 31.6 µM, 0.154 µM, 4.3 µM and > 100 µM.
The matching figures for `CCNC(=O)Nc1ccc2ncc(Nc3ccc(OC)c(OC)c3)nc2n1` [Compound 187, 1-[3-(3,4-Dimethoxy-phenylamino)-pyrido[2,3-b]pyrazin-6-yl]-3-ethyl-urea]: 16.6 µM, 0.712 µM, > 100 µM and > 31.6 µM.
In the case of `CCNC(=O)Nc1ccc2ncc(Nc3ccc(C)c(O)c3)nc2n1` [Compound 188, 1-Ethyl-3-[3-(3-hydroxy-4-methyl-phenylamino)-pyrido[2,3-b]pyrazin-6-yl]-urea], the IC50 is > 100 µM on Erk2, 2.8 µM against PI3Kalpha, > 31.6 µM in the series on Jnk1 + Jnk2 and > 100 µM on p38alpha.
Consider `CCNC(=O)Nc1ccc2ncc(Nc3cc(C(=O)O)cc(C(F)(F)F)c3)nc2n1` [Compound 189, 3-[6-(3-Ethyl-ureido)-pyrido[2,3-b]-pyrazin-3-ylamino]-5-trifluoromethyl-benzoic acid], for which the IC50 at Erk2 is 20.3 µM; against PI3Kalpha, 0.237 µM; in the series with Jnk1 + Jnk2, 6.2 µM; on p38alpha, > 100 µM.
In the case of `CCNC(=O)Nc1ccc2ncc(Nc3ccc(OC)nc3)nc2n1` [Compound 190, 1-Ethyl-3-[3-(6-methoxy-pyridin-3-ylamino)-pyrido[2,3-b]pyrazin-6-yl]-urea], the IC50 is > 100 µM against Erk2, 0.271 µM against PI3Kalpha, 31 µM in the series on Jnk1 + Jnk2 and > 100 µM against p38alpha.
With `CCNC(=O)Nc1ccc2ncc(Nc3ccc(C#N)cc3)nc2n1` [Compound 192, 1-[3-(4-Cyano-phenylamino)-pyrido-[2,3-b]pyrazin-6-yl]-3-ethyl-urea], the 50% inhibitory concentration (IC50) on Erk2 is 31.6 µM; against PI3Kalpha, 0.422 µM; in the series on Jnk1 + Jnk2 it was 1.8 µM; against p38alpha, > 100 µM.
